According to BindingDB's records for doi:10.7270/Q2B27SQ0 (Nmmlsc, 2008):
Counter-ions that a name gives are not always drawn.

molecular target: Apoptosis regulator Bcl-2 (Homo sapiens, UniProt P10415); assay: PubChem AID 950; details: not given
Sequence (P10415 whole entry): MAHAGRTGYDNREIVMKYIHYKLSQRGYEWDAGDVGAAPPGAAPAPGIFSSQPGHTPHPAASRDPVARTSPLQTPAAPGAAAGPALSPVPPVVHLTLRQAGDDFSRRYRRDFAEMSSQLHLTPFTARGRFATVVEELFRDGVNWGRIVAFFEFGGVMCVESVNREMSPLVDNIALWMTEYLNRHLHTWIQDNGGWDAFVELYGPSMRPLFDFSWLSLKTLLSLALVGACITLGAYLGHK

**Q.** With `CN1CCc2cccc3c2[C@@H]1Cc1ccc(O)c(O)c1-3` as the compound, how does the EC50 read?
**A.** 16.1 µM

**Q.** Which EC50 does the source give for `CCC(/C=C1\Sc2ccc(OC)cc2N1CCO)=C\c1sc2ccc(OC)cc2[n+]1CCO` here?
**A.** 16.1 µM

**Q.** How did the EC50 turn out when `Cc1nc2ncccn2c1-c1csc(Nc2ccc(O)cc2)n1` was run?
**A.** 0.67 µM

**Q.** For `c1ccc(-c2nc(N3CCOCC3)[s+]n2-c2ccccc2)cc1`, which EC50 is on record?
**A.** 13.8 µM

**Q.** `O=C(NCc1ccccc1)c1ccc2nc(-c3ccco3)c(-c3ccco3)nc2c1` [2,3-bis(furan-2-yl)-N-(phenylmethyl)quinoxaline-6-carboxamide] was tested. Which EC50 did it give?
**A.** 7.44 µM

**Q.** With `COc1ccc(CC(=O)Nc2ccc(-c3nc4cc(C)ccc4o3)c(O)c2)cc1OC` [2-(3,4-dimethoxyphenyl)-N-[(4Z)-3-keto-4-(5-methyl-3H-1,3-benzoxazol-2-ylidene)cyclohexa-1,5-dien-1-yl]acetamide] as the compound, how does the EC50 read?
**A.** 10 µM

**Q.** For `C=CCn1c(SCC(=O)Nc2ccc3c(c2)OCO3)nnc1-c1cc(Br)ccc1O` [2-[[(5Z)-4-allyl-5-(3-bromo-6-keto-cyclohexa-2,4-dien-1-ylidene)-1H-1,2,4-triazol-3-yl]thio]-N-(1,3-benzodioxol-5-yl)acetamide], which EC50 is on record?
**A.** 15.8 µM

**Q.** `Cc1cc(N)ccc1N1CCCC1` [3-methyl-4-(1-pyrrolidinyl)aniline;hydrochloride] was tested. Which EC50 did it give?
**A.** 13.7 µM

**Q.** Which EC50 does the source give for `COc1cc(/C=C2\CC/C(=C\c3cc(OC)c(O)c(OC)c3)C2=O)cc(OC)c1O` [(2E,5E)-2,5-bis[(4-hydroxy-3,5-dimethoxyphenyl)methylidene]cyclopentan-1-one] here?
**A.** 5.13 µM

**Q.** With `CN(C)[C@@H]1C(=O)C(C(=O)NCN2CCCC2)C(=O)[C@@]2(O)C(=O)C3C(=O)c4c(O)cccc4[C@@](C)(O)C3CC12` (stereo partly drawn) [(2Z,4S,6S,12aS)-4-(dimethylamino)-6,10,11,12a-tetrahydroxy-2-[hydroxy-(1-pyrrolidinylmethylamino)methylidene]-6-methyl-4,4a,5,5a-tetrahydrotetracene-1,3,12-trione] as the compound, how does the EC50 read?
**A.** 23.7 µM

**Q.** `COc1cc(CN=Nc2nn3cnnc3c3ccccc23)ccc1O` [(4E)-2-methoxy-4-[[2-([1,2,4]triazolo[3,4-a]phthalazin-6-yl)hydrazinyl]methylidene]cyclohexa-2,5-dien-1-one] was tested. Which EC50 did it give?
**A.** 8.47 µM

**Q.** With `O=C1/C(=C\c2ccc(-c3ccccc3Cl)o2)SC(=S)N1CC1CCCO1` (configuration not stated) [(5E)-5-[[5-(2-chlorophenyl)furan-2-yl]methylidene]-3-(oxolan-2-ylmethyl)-2-sulfanylidene-1,3-thiazolidin-4-one] as the compound, how does the EC50 read?
**A.** 2.33 µM

**Q.** `CN1CCc2cccc3c2[C@H]1Cc1ccc(O)c(O)c1-3` [APOMORPHINE HYDROCHLORIDE] was tested. Which EC50 did it give?
**A.** 42.3 µM

**Q.** How did the EC50 turn out when `CCOC(=O)C1CCN(C(=O)Nc2ccc3nc(-c4ccco4)c(-c4ccco4)nc3c2)CC1` [MLS000113285] was run?
**A.** 6.65 µM

**Q.** Which EC50 does the source give for `Clc1ccc2c(N=NCc3ccccc3Br)ccnc2c1` [MLS000336087] here?
**A.** 9.15 µM

**Q.** For `O=[N+]([O-])c1ccc(N=NCc2ccc(O)c(O)c2O)c(S(=O)(=O)N2CCOCC2)c1` [MLS000336720], which EC50 is on record?
**A.** 4.66 µM

**Q.** How did the EC50 turn out when `COc1ccc2c3c(cccc13)N(C)N=C2C` [MLS000554700] was run?
**A.** 2.01 µM

**Q.** For `OCCN1CCN(CCCc2c3c(cc4c2CCC4)CCC3)CC1` [MLS000698424], which EC50 is on record?
**A.** 17.9 µM

**Q.** `COc1cccc2c(SCC(=O)NN=Cc3ccc(O)cc3O)cc(C)nc12` [N'-[(E)-(2-hydroxy-4-oxo-1-cyclohexa-2,5-dienylidene)methyl]-2-[(8-methoxy-2-methyl-4-quinolinyl)thio]acetohydrazide] was tested. Which EC50 did it give?
**A.** 24.1 µM

**Q.** For `CC(=O)c1ccc(NC(=O)c2ccc3nc(-c4ccco4)c(-c4ccco4)nc3c2)cc1` [N-(4-acetylphenyl)-2,3-di-2-furyl-6-quinoxalinecarboxamide], which EC50 is on record?
**A.** 8.54 µM

same assay, conditions: inactive by the depositor's call

**Q.** How did the EC50 turn out when `CN1CCN(C2=C(Cl)C(=O)C(c3cnc(N4CCCCC4)s3)=C(Cl)C2=O)CC1` was run?
**A.** 0.16 µM

**Q.** How did the EC50 turn out when `CCOC(=O)c1ccc(Nc2nc(C(=O)OCC)nc3ccccc23)cc1` was run?
**A.** 1.51 µM

**Q.** How did the EC50 turn out when `CCN1C(=O)/C(=C/C=C2\C=CN(CC)c3ccccc32)SC1=S` was run?
**A.** 35.3 µM

**Q.** Which EC50 does the source give for `Cc1ccc(-c2ccc(/C=C/C(=O)c3ccccc3)o2)cc1` here?
**A.** 8.47 µM

**Q.** Which EC50 does the source give for `COc1ccc(-n2c(=O)c3ccccc3c3ccccc3c2=O)c(OC)c1` here?
**A.** 13.4 µM

**Q.** How did the EC50 turn out when `N#Cc1cc(-c2ccccc2)nn1-c1ccccc1` was run?
**A.** 39.6 µM

**Q.** With `CN(C)c1ncc(C2=C(Cl)C(=O)C(N3CCCC3)=C(Cl)C2=O)s1` as the compound, how does the EC50 read?
**A.** 0.21 µM

**Q.** Which EC50 does the source give for `c1ccc(C2=Nc3cccc4cccc(c34)N2)cc1` here?
**A.** 26.5 µM

**Q.** Which EC50 does the source give for `Cc1ccc(C)c(/C=C/C(=O)c2ccccc(=O)c2O)c1` here?
**A.** 19.4 µM

**Q.** How did the EC50 turn out when `O=C(NC1=C(Nc2ccc(Cl)cc2)C(=O)c2ccccc2C1=O)c1ccccc1` was run?
**A.** 17.9 µM

**Q.** `O=C(Nc1ccc2nc(-c3ccco3)c(-c3ccco3)nc2c1)N1CCN(c2ccccn2)CC1` was tested. Which EC50 did it give?
**A.** 8.86 µM

**Q.** For `O=C(c1ccccc1)c1ccc2nc(-c3ccco3)c(-c3ccco3)nc2c1`, which EC50 is on record?
**A.** 16 µM

**Q.** For `CCOc1ccccc1CNc1ccc(O)cc1`, which EC50 is on record?
**A.** 3.63 µM

**Q.** For `Cc1ccc(C(=O)/C=C/c2ccc(-c3ccc(C)cc3)o2)cc1` [1-p-Tolyl-3-(5-p-tolyl-furan-2-yl)-propenone], which EC50 is on record?
**A.** 3.08 µM

**Q.** For `COc1ccc2nc(-c3ccco3)c(-c3ccco3)nc2c1` [2,3-di-2-furyl-6-methoxyquinoxaline], which EC50 is on record?
**A.** 14.4 µM

**Q.** For `O=C(NCc1ccccn1)c1ccc2nc(-c3ccco3)c(-c3ccco3)nc2c1` [2,3-di-2-furyl-N-(pyridin-2-ylmethyl)quinoxaline-6-carboxamide], which EC50 is on record?
**A.** 14.1 µM

**Q.** For `O=C(Nc1ccccc1)c1ccc2nc(-c3ccco3)c(-c3ccco3)nc2c1` [2,3-di-2-furyl-N-phenyl-6-quinoxalinecarboxamide], which EC50 is on record?
**A.** 36.5 µM

**Q.** `c1coc(C2=Nc3cccc4cccc(c34)N2)c1` [2-(2-furanyl)-1H-perimidine] was tested. Which EC50 did it give?
**A.** 9.76 µM

**Q.** With `O=C(/C=C/c1ccccc1Cl)c1ccccc(=O)c1O` [3-[(E)-3-(2-chlorophenyl)prop-2-enoyl]-2-oxidanyl-cyclohepta-2,4,6-trien-1-one] as the compound, how does the EC50 read?
**A.** 15 µM

**Q.** With `Cc1cc(-c2csc(N)n2)c(C)n1C` [4-(1,2,5-trimethyl-3-pyrrolyl)-2-thiazolamine] as the compound, how does the EC50 read?
**A.** 46.3 µM

**Q.** How did the EC50 turn out when `Cc1nc2ncccn2c1-c1csc(Nc2ccccc2)n1` [4-(2-methyl-3-imidazo[1,2-a]pyrimidinyl)-N-phenyl-2-thiazolamine] was run?
**A.** 8.93 µM

**Q.** How did the EC50 turn out when `CNc1ccc(Br)cc(C(=O)/C=C/c2cccc(OC)c2)c1=O` [4-bromo-2-[3-(3-methoxyphenyl)acryloyl]-7-(methylamino)-2,4,6-cycloheptatrien-1-one] was run?
**A.** 55 µM

**Q.** How did the EC50 turn out when `Cc1cc(C)nc(SCc2cc(=O)c(OC(=O)c3ccc(Cl)c([N+](=O)[O-])c3)co2)n1` [4-chloro-3-nitrobenzoic acid [6-[[(4,6-dimethyl-2-pyrimidinyl)thio]methyl]-4-oxo-3-pyranyl] ester] was run?
**A.** 8.45 µM

**Q.** How did the EC50 turn out when `CN(C)c1ccc(C=C2C(=O)NC(=O)NC2=O)cc1[N+](=O)[O-]` [5-[[4-(dimethylamino)-3-nitrophenyl]methylidene]-1,3-diazinane-2,4,6-trione] was run?
**A.** 16.4 µM

**Q.** With `CCc1ccc(/C=C/C(=O)c2cc(Br)ccc(=O)c2O)cc1` [5-bromo-3-[(E)-3-(4-ethylphenyl)-1-oxoprop-2-enyl]-2-hydroxy-1-cyclohepta-2,4,6-trienone] as the compound, how does the EC50 read?
**A.** 76.4 µM

**Q.** With `COc1ccc(C2=Nn3c(nnc3-c3ccco3)SC2)cc1OC` [6-(3,4-Dimethoxy-phenyl)-3-furan-2-yl-7H-[1,2,4]triazolo[3,4-b][1,3,4]thiadiazine] as the compound, how does the EC50 read?
**A.** 1.21 µM

**Q.** With `O=C1C(=Cc2ccco2)NC(=S)N1c1ccccc1` [(5E)-5-(furan-2-ylmethylidene)-3-phenyl-2-sulfanylideneimidazolidin-4-one] as the compound, how does the EC50 read?
**A.** 27.2 µM

**Q.** Which EC50 does the source give for `Cc1ccc(-c2ccc(/C=C3\SC(N4CCOCC4)=NC3=O)o2)cc1` [(5Z)-5-[[5-(4-methylphenyl)-2-furanyl]methylidene]-2-(4-morpholinyl)-4-thiazolone] here?
**A.** 44.6 µM

**Q.** Which EC50 does the source give for `O=C(/C=C\c1ccc(-c2ccccc2)o1)c1ccccc1` [(Z)-1-phenyl-3-(5-phenyl-2-furanyl)-2-propen-1-one] here?
**A.** 34.9 µM

**Q.** `COc1cc(C2Nc3cccc4cccc(c34)N2)ccc1OC(C)=O` [Acetic acid 4-(2,3-dihydro-1H-perimidin-2-yl)-2-methoxy-phenyl ester] was tested. Which EC50 did it give?
**A.** 11.4 µM

**Q.** With `COC(=O)CSc1ncnc2c1sc1nc(-c3ccco3)c3c(c12)CC(C)(C)OC3` [MLS000039339] as the compound, how does the EC50 read?
**A.** 27.6 µM

**Q.** `C/C(=C\c1ccco1)C1Nc2cccc3cccc(c23)N1` [MLS000055728] was tested. Which EC50 did it give?
**A.** 14.2 µM

**Q.** Which EC50 does the source give for `O=C1c2ccccc2-c2onc3ccc(NCc4ccco4)c1c23` [MLS000080234] here?
**A.** 37.8 µM

**Q.** For `Cc1cc2n(c1)CCn1c(C)ccc1-2` [MLS000104384], which EC50 is on record?
**A.** 15.9 µM

**Q.** Which EC50 does the source give for `Clc1nc(NCc2cccnc2)nc(N2CCOCC2)n1` [MLS000121154] here?
**A.** 24.9 µM

**Q.** For `Cc1ccc(NC2=C(NC(=O)c3ccccc3)C(=O)c3ccccc3C2=O)cc1Cl` [MLS000392290], which EC50 is on record?
**A.** 4.38 µM

**Q.** For `COCCCn1c(N)c(C(=O)Nc2sc3c(c2C(=O)OC)CCCC3)c2nc3ccccc3nc21` [MLS000595323], which EC50 is on record?
**A.** 1.95 µM

**Q.** How did the EC50 turn out when `COc1cc2nc(=S)[nH]c(NCCc3ccc(S(N)(=O)=O)cc3)c2cc1OC` [MLS000674601] was run?
**A.** 0.54 µM

**Q.** With `Fc1ccc(C2=Nc3cccc4cccc(c34)N2)cc1` [MLS000687139] as the compound, how does the EC50 read?
**A.** 9.27 µM

**Q.** Which EC50 does the source give for `COc1ccc(/C=C/C(=O)c2cc(Br)ccc(=O)c2O)cc1` [MLS000702099] here?
**A.** 33.6 µM

**Q.** For `CCOC(=O)c1c(O)nc2ccc(Cl)c3c2c1-c1ccccc1C3=O` [MLS000704595], which EC50 is on record?
**A.** 7.65 µM

**Q.** `c1ccc(Nc2cccc(Nc3ccccc3)n2)cc1` [N,N'-diphenyl-2,6-pyridinediamine] was tested. Which EC50 did it give?
**A.** 2.79 µM

**Q.** With `O=C(Nc1ccc(N2CCOCC2)cc1)Nc1ccc2nc(-c3ccco3)c(-c3ccco3)nc2c1` [N-(2,3-di-2-furyl-6-quinoxalinyl)-N'-[4-(4-morpholinyl)phenyl]urea] as the compound, how does the EC50 read?
**A.** 8.89 µM

**Q.** For `Clc1nss/c1=N\c1ccc(Br)cc1` [N-(4-bromophenyl)-4-chloro-5-dithiazolimine], which EC50 is on record?
**A.** 49.8 µM

**Q.** For `COc1ccc(CCNC(=O)c2ccc3nc(-c4ccco4)c(-c4ccco4)nc3c2)cc1OC` [N-[2-(3,4-dimethoxyphenyl)ethyl]-2,3-di-2-furylquinoxaline-6-carboxamide], which EC50 is on record?
**A.** 13.6 µM

**Q.** Which EC50 does the source give for `O=C(NC1=C(NC2CCS(=O)(=O)C2)C(=O)c2ccccc2C1=O)c1ccccc1` (configuration not stated) [N-[3-[(1,1-dioxo-3-thiolanyl)amino]-1,4-dioxo-2-naphthalenyl]benzamide] here?
**A.** 19.7 µM

**Q.** For `Cc1cccc(OCC(=O)NCC(=O)NN=Cc2cc(Br)ccc2OCc2ccccc2)c1` [N-[(5-bromanyl-2-phenylmethoxy-phenyl)methylideneamino]-2-[2-(3-methylphenoxy)ethanoylamino]ethanamide], which EC50 is on record?
**A.** 5.73 µM
